# Test results published in EPA's ToxValDB 9.5 (doi:10.2903/j.efsa.2014.3881).
# Assays:
# Anas platyrhynchos = details: reproductive
# Apis mellifera = details: acute, mortality
# Coturnix japonica = details: acute; oral; mortality
# Colinus virginianus = details: acute; oral; diet; mortality
# Mus musculus = details: chronic; duration: 18 months; body weight
# Daphnia magna = details: chronic/long-term; duration: 21 days; reproduction
# Canidae = details: chronic; duration: 1 years; oral; Dog Other; body weight
smiles,measurement,setting,value
COC(=O)c1ccc(C(F)(F)F)nc1S(=O)(=O)[N-]C(=O)Nc1nc(OC)cc(OC)n1.[Na+] [Flupyrsulfuron-methyl sodium],NOEL,Anas platyrhynchos,26 mg/kg-day
same,LC50,"Oncorhynchus mykiss; acute, duration: 96 hours, mortality",470 µg/mL
same,NOEC,"Oncorhynchus mykiss; chronic/long-term, duration: 90 days, growth",9.2 mg/L
same,LD50,Apis mellifera; dermal,> 250 µg/piece
same,LD50,"Apis mellifera; oral, unspecified",119 µg/piece
same,LC50,"Tagia sp.; acute, duration: 14 days, mortality",> 1000 mg/kg
same,NOEC,"Tagia sp.; chronic/long-term, duration: 8 weeks",0.065 mg/kg
same,LD50,Coturnix japonica,> 2250 mg/kg-day
same,LD50,Colinus virginianus,> 1610 mg/kg-day
same,NOAEL,Mus musculus,3.51 mg/kg-day
same,NOEC,Daphnia magna,16 mg/L
same,LD50,"Rattus norvegicus; acute, mortality",> 2500 mg/kg-day
same,NOAEL,"Rattus norvegicus; developmental, development",20 mg/kg-day
same,NOAEL,Canidae,13.6 mg/kg-day
